HELM strings list units from the 5' end as sugar, base in round brackets, then linkage (d deoxyribose, r ribose, m 2'-O-methyl, p phosphodiester). Strings are as the collection lists them; they lack the last nucleoside at the 3' end of the tested compound. [moe] = 2'-O-(2-methoxyethyl) (MOE); [sp] = phosphorothioate linkage; [m5C] = 5-methylcytosine

This series concerns the target APP. Put plainly: mouse, dose not given. To be noted: ASO.
“RNA1{[moe]([m5C])[sp].[moe]([m5C])p.[moe](A)p.[moe]([m5C])p.[moe](G)[sp].d(A)[sp].d([m5C])[sp].d([m5C])[sp].d(T)[sp].d(T)[sp].d(A)[sp].d([m5C])[sp].d(A)[sp].d([m5C])[sp].d(T)[sp].[moe](A)p.[moe](G)p.[moe](G)[sp].[moe](T)}$$$$ (last 3' nucleoside missing)” yielded a 3 h FOB score of 0 score 0-7. With “RNA1{[moe]([m5C])[sp].[moe](A)p.[moe](T)p.[moe](G)p.[moe]([m5C])[sp].d(G)[sp].d([m5C])[sp].d(T)[sp].d([m5C])[sp].d(A)[sp].d(T)[sp].d(A)[sp].d(A)[sp].d(A)[sp].d(T)[sp].[moe]([m5C])p.[moe](A)p.[moe]([m5C])[sp].[moe](A)}$$$$ (last 3' nucleoside missing)”, the 3 h FOB score worked out at 3.5 score 0-7. In turn, “RNA1{[moe](G)[sp].[moe](G)p.[moe](A)p.[moe](A)p.[moe]([m5C])[sp].d(T)[sp].d([m5C])[sp].d(G)[sp].d(A)[sp].d(A)[sp].d([m5C])[sp].d([m5C])[sp].d(A)[sp].d([m5C])[sp].d([m5C])[sp].[moe](T)p.[moe]([m5C])p.[moe](T)[sp].[moe](T)}$$$$ (last 3' nucleoside missing)” came in with a 3 h FOB score of 2.5 score 0-7. Consider “RNA1{[moe](A)[sp].[moe]([m5C])p.[moe](A)p.[moe](T)p.[moe]([m5C])[sp].d(A)[sp].d(T)[sp].d(A)[sp].d(T)[sp].d(T)[sp].d([m5C])[sp].d(T)[sp].d(T)[sp].d(A)[sp].d([m5C])[sp].[moe](T)p.[moe](G)p.[moe](T)[sp].[moe](T)}$$$$ (last 3' nucleoside missing)”, for which the 3 h FOB score was found to be 0 score 0-7. With “RNA1{[moe]([m5C])[sp].[moe](T)[sp].[moe](T)p.[moe]([m5C])p.[moe]([m5C])[sp].d([m5C])[sp].d(A)[sp].d(T)[sp].d(T)[sp].d([m5C])[sp].d(T)[sp].d([m5C])[sp].d(T)[sp].d([m5C])[sp].d(A)[sp].[moe](T)p.[moe](G)p.[moe](A)[sp].[moe]([m5C])}$$$$ (last 3' nucleoside missing)”, the 3 h FOB score stood at 1 score 0-7. Next, “RNA1{[moe](T)[sp].[moe]([m5C])p.[moe](T)p.[moe](G)p.[moe](A)[sp].d(T)[sp].d(A)[sp].d(T)[sp].d(T)[sp].d([m5C])[sp].d(A)[sp].d([m5C])[sp].d(T)[sp].d(T)[sp].d(A)[sp].[moe](T)p.[moe]([m5C])p.[moe](T)[sp].[moe](G)}$$$$ (last 3' nucleoside missing)”: 0 score 0-7. The substance “RNA1{[moe](A)[sp].[moe]([m5C])p.[moe](T)p.[moe](G)p.[moe](A)[sp].d(T)[sp].d(T)[sp].d(A)[sp].d(T)[sp].d([m5C])[sp].d(A)[sp].d(A)[sp].d(A)[sp].d(T)[sp].d(T)[sp].[moe]([m5C])p.[moe]([m5C])p.[moe](G)[sp].[moe](G)}$$$$ (last 3' nucleoside missing)” displayed a 3 h FOB score of 0.25 score 0-7.

In turn, “RNA1{[moe]([m5C])[sp].[moe]([m5C])p.[moe](T)p.[moe]([m5C])p.[moe](T)[sp].d(G)[sp].d([m5C])[sp].d(T)[sp].d(A)[sp].d([m5C])[sp].d(T)[sp].d(T)[sp].d([m5C])[sp].d(T)[sp].d(A)[sp].[moe]([m5C])p.[moe](T)p.[moe](A)[sp].[moe]([m5C])}$$$$ (last 3' nucleoside missing)” came in with a 3 h FOB score of 1 score 0-7. “RNA1{[moe](A)[sp].[moe]([m5C])p.[moe](A)p.[moe]([m5C])p.[moe](A)[sp].d([m5C])[sp].d(A)[sp].d(A)[sp].d(A)[sp].d([m5C])[sp].d(T)[sp].d([m5C])[sp].d(T)[sp].d(A)[sp].d([m5C])[sp].[moe]([m5C])p.[moe]([m5C])p.[moe]([m5C])[sp].[moe](T)}$$$$ (last 3' nucleoside missing)” had a 3 h FOB score of 0.5 score 0-7. In the case of “RNA1{[moe]([m5C])[sp].[moe]([m5C])p.[moe](T)p.[moe](T)p.[moe](T)[sp].d(G)[sp].d(T)[sp].d(T)[sp].d(T)[sp].d(G)[sp].d(A)[sp].d(A)[sp].d([m5C])[sp].d([m5C])[sp].d([m5C])[sp].[moe](A)p.[moe]([m5C])p.[moe](A)[sp].[moe](T)}$$$$ (last 3' nucleoside missing)”, the 3 h FOB score turned out to be 0 score 0-7. Turning to “RNA1{[moe](G)[sp].[moe](T)p.[moe](G)p.[moe](A)p.[moe]([m5C])[sp].d(T)[sp].d(T)[sp].d(A)[sp].d(T)[sp].d(A)[sp].d([m5C])[sp].d(T)[sp].d([m5C])[sp].d(A)[sp].d(A)[sp].[moe](T)p.[moe](G)p.[moe](A)[sp].[moe]([m5C])}$$$$ (last 3' nucleoside missing)”, the 3 h FOB score worked out at 0 score 0-7. Take “RNA1{[moe](T)[sp].[moe](T)p.[moe](G)p.[moe](A)p.[moe](T)[sp].d(A)[sp].d(T)[sp].d(T)[sp].d(T)[sp].d(G)[sp].d(T)[sp].d([m5C])[sp].d(A)[sp].d(A)[sp].d([m5C])[sp].[moe]([m5C])p.[moe]([m5C])p.[moe](A)[sp].[moe](G)}$$$$ (last 3' nucleoside missing)”: the 3 h FOB score stood at 2.5 score 0-7. Substance “RNA1{[moe](T)[sp].[moe]([m5C])p.[moe]([m5C])p.[moe](G)p.[moe](A)[sp].d(G)[sp].d(T)[sp].d([m5C])[sp].d(A)[sp].d(T)[sp].d([m5C])[sp].d([m5C])[sp].d(T)[sp].d([m5C])[sp].d([m5C])[sp].[moe](T)p.[moe]([m5C])p.[moe]([m5C])[sp].[moe](G)}$$$$ (last 3' nucleoside missing)” gave a 3 h FOB score of 1 score 0-7. With “RNA1{[moe](A)[sp].[moe]([m5C])p.[moe](A)p.[moe](T)p.[moe](T)[sp].d(A)[sp].d(T)[sp].d(T)[sp].d([m5C])[sp].d(T)[sp].d(A)[sp].d(T)[sp].d(A)[sp].d(A)[sp].d(A)[sp].[moe](T)p.[moe](G)p.[moe](G)[sp].[moe](A)}$$$$ (last 3' nucleoside missing)” the figure was 0 score 0-7; with “RNA1{[moe](T)[sp].[moe]([m5C])p.[moe](T)p.[moe]([m5C])p.[moe]([m5C])[sp].d(A)[sp].d(A)[sp].d(T)[sp].d(T)[sp].d(T)[sp].d(T)[sp].d(A)[sp].d(A)[sp].d([m5C])[sp].d(T)[sp].[moe](T)p.[moe](G)p.[moe]([m5C])[sp].[moe](A)}$$$$ (last 3' nucleoside missing)”, 0 score 0-7. “RNA1{[moe]([m5C])[sp].[moe](G)p.[moe](G)p.[moe](A)p.[moe]([m5C])[sp].d(T)[sp].d(T)[sp].d(T)[sp].d(T)[sp].d(T)[sp].d(T)[sp].d([m5C])[sp].d(T)[sp].d(T)[sp].d([m5C])[sp].[moe](T)p.[moe](T)p.[moe](G)[sp].[moe]([m5C])}$$$$ (last 3' nucleoside missing)”: the 3 h FOB score is 0 score 0-7.

In turn, “RNA1{[moe](A)[sp].[moe](G)p.[moe](G)p.[moe](T)p.[moe]([m5C])[sp].d(T)[sp].d([m5C])[sp].d(T)[sp].d(A)[sp].d(T)[sp].d(A)[sp].d(T)[sp].d(T)[sp].d(T)[sp].d(T)[sp].[moe](G)p.[moe](G)p.[moe](T)[sp].[moe]([m5C])}$$$$ (last 3' nucleoside missing)” displayed a 3 h FOB score of 0.33 score 0-7.

These data come from the OligoGym collection.
